# Measured values taken from patent US20260116920A1, “HUMAN TRANSFERRIN RECEPTOR BINDING PEPTIDE” (PEPTIDREAM INC., priority 2021, published 2026).
# Several values for one entry are separate records, joined by “and”; a condition that tells them apart may be missing. Equal entries are not always repeated.
# Target: T1, human transferrin receptor (hTfR) (Homo sapiens, UniProt P02786)
# T1 construct: made in house
# Experiment: Evaluation of molecular interaction between transferrin receptor (hTfR) and peptide using surface plasmon resonance (SPR)
# Format: binding
# Settings: SPR, immobilized recombinant hTfR, single-cycle kinetics; substitution variants of 894_3151; read-out: KD
# How it was run: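 Single-cycle SPR kinetics, KD by least-squares sensorgram fitting, with peptide series of 100, 50, 25, 10 and 5 nM. Running buffer: 10 mM HEPES pH 8.0, 150 mM NaCl, 0.05% Tween 20, 0.1% BSA, 1.0% DMSO. Surface: hTfR dimer covalently coupled (EDC/NHS) onto Ni-NTA chip.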
# T1 sequence (P02786 89-760 limits assumed): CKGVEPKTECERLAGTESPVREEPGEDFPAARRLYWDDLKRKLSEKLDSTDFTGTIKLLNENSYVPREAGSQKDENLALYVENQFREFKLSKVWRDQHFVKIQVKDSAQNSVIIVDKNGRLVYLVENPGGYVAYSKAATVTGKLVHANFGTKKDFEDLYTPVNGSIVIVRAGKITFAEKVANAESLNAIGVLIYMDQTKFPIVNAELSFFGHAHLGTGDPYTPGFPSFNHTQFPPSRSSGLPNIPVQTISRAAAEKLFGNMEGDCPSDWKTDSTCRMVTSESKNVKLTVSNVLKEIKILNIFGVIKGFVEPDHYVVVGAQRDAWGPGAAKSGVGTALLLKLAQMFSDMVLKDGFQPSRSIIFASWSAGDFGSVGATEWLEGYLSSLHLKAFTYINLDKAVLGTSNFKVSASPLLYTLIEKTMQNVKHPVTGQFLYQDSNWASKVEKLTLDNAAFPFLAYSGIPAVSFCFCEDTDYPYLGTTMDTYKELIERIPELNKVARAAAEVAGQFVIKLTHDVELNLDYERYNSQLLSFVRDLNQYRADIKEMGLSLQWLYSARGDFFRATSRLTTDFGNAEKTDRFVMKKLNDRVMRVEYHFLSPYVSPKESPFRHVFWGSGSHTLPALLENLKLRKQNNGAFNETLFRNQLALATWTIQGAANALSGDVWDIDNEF
row,Kd [nM],SMILES
1,1.3,CC[C@H](C)[C@@H]1NC(=O)[C@H](Cc2ccc(O)cc2)NC(=O)[C@H](Cc2ccc(O)cc2)NC(=O)[C@H](CC(N)=O)NC(=O)[C@H](Cc2c[nH]c3ccccc23)NC(=O)[C@H](C(C)C)NC(=O)[C@H](Cc2ccccc2)N(C)C(=O)[C@H](C(C)C)NC(=O)[C@H](C)NC(=O)CSC[C@@H](C(=O)NCC(=O)N[C@@H](CCCCN=[N+]=[N-])C(N)=O)NC(=O)[C@H](Cc2ccc(O)cc2)N(C)C(=O)[C@H](Cc2ccc(O)cc2)NC(=O)[C@H](CCCNC(=N)N)NC(=O)[C@H](CCCNC(=N)N)NC(=O)[C@H]([C@@H](C)CC)NC1=O [compound 13]

# Same assay, conditions: ratio of KD to KD of 894_3151 (SEQ ID NO: 13)
row,KD (Each Peptide)/KD (894_3151),SMILES
1,1.0 and 1.4,CC[C@H](C)[C@@H]1NC(=O)[C@H](Cc2ccc(O)cc2)NC(=O)[C@H](Cc2ccc(O)cc2)NC(=O)[C@H](CC(N)=O)NC(=O)[C@H](Cc2c[nH]c3ccccc23)NC(=O)[C@H](C(C)C)NC(=O)[C@H](Cc2ccccc2)N(C)C(=O)[C@H](C(C)C)NC(=O)[C@H](C)NC(=O)CSC[C@@H](C(=O)NCC(=O)N[C@@H](CCCCN=[N+]=[N-])C(N)=O)NC(=O)[C@H](Cc2ccc(O)cc2)N(C)C(=O)[C@H](Cc2ccc(O)cc2)NC(=O)[C@H](CCCNC(=N)N)NC(=O)[C@H](CCCNC(=N)N)NC(=O)[C@H]([C@@H](C)CC)NC1=O [compound 13]

# Same assay, conditions: surface plasmon resonance, binding to hTfR; KD class symbol; read-out: SPR (KD value)
row,Kd [nM],SMILES
1,< 1,CC[C@H](C)[C@@H]1NC(=O)[C@H](Cc2ccc(O)cc2)NC(=O)[C@H](Cc2ccc(O)cc2)NC(=O)[C@H](CC(N)=O)NC(=O)[C@H](Cc2c[nH]c3ccccc23)NC(=O)[C@H](C(C)C)NC(=O)[C@H](Cc2ccccc2)N(C)C(=O)[C@H](C(C)C)NC(=O)[C@H](C)NC(=O)CSC[C@@H](C(=O)NCC(=O)N[C@@H](CCCCN=[N+]=[N-])C(N)=O)NC(=O)[C@H](Cc2ccc(O)cc2)N(C)C(=O)[C@H](Cc2ccc(O)cc2)NC(=O)[C@H](CCCNC(=N)N)NC(=O)[C@H](CCCNC(=N)N)NC(=O)[C@H]([C@@H](C)CC)NC1=O [compound 13]
2,1 to 100,CC[C@H](C)[C@@H]1NC(=O)[C@H](Cc2ccc(O)cc2)NC(=O)[C@H](Cc2ccc(O)cc2)NC(=O)[C@H](CC(N)=O)NC(=O)[C@H](Cc2c[nH]c3ccccc23)NC(=O)[C@H](C(C)C)NC(=O)[C@H](Cc2ccccc2)N(C)C(=O)[C@H](C(C)C)NC(=O)[C@H](C)NC(=O)CSC[C@@H](C(=O)NCCOCCOCCOCCOCCC(N)=O)NC(=O)[C@H](Cc2ccc(O)cc2)N(C)C(=O)[C@H](Cc2ccccc2)NC(=O)[C@@H](CCCNC(=N)N)NC(=O)[C@H](CCCNC(=N)N)NC(=O)[C@H]([C@@H](C)CC)NC1=O [compound 14]
3,1 to 100,CC[C@H](C)[C@@H]1NC(=O)[C@H](Cc2ccc(OC)cc2)NC(=O)[C@H](Cc2ccc(O)cc2)NC(=O)[C@H](CC(N)=O)NC(=O)[C@H](Cc2c[nH]c3ccccc23)NC(=O)[C@H](C(C)C)NC(=O)[C@H](Cc2ccccc2)N(C)C(=O)[C@H](C(C)C)NC(=O)[C@H](C)NC(=O)CSC[C@@H](C(=O)NCCOCCOCCOCCOCCC(N)=O)NC(=O)[C@H](Cc2ccc(O)cc2)N(C)C(=O)[C@H](Cc2ccccc2)NC(=O)[C@@H](CCCNC(=N)N)NC(=O)[C@H](CCCNC(=N)N)NC(=O)[C@H]([C@@H](C)CC)NC1=O [compound 15]
4,1 to 100,CC[C@H](C)[C@@H]1NC(=O)[C@H](Cc2ccc(O)cc2)NC(=O)[C@H](Cc2ccc(O)cc2)NC(=O)[C@H](CC(N)=O)NC(=O)[C@H](Cc2c[nH]c3ccccc23)NC(=O)[C@H](C(C)C)NC(=O)[C@H](Cc2ccccc2)N(C)C(=O)[C@H](C(C)C)NC(=O)[C@H](C)NC(=O)CSC[C@@H](C(=O)NCCOCCOCCOCCOCCC(N)=O)NC(=O)[C@H](Cc2ccc(O)cc2)N(C)C(=O)[C@H](Cc2ccccc2)NC(=O)[C@H](CCCNC(=N)N)NC(=O)[C@H](CCCNC(=N)N)N(C)C(=O)[C@H]([C@@H](C)CC)NC1=O [compound 16]
5,1 to 100,CC[C@H](C)[C@@H]1NC(=O)[C@H](Cc2ccc(OC)cc2)NC(=O)[C@H](Cc2ccc(O)cc2)NC(=O)[C@H](CC(N)=O)NC(=O)[C@H](Cc2c[nH]c3ccccc23)NC(=O)[C@H](C(C)C)NC(=O)[C@H](Cc2ccccc2)N(C)C(=O)[C@H](C(C)C)NC(=O)[C@H](C)NC(=O)CSC[C@@H](C(=O)NCCOCCOCCOCCOCCC(N)=O)NC(=O)[C@H](Cc2ccc(O)cc2)N(C)C(=O)[C@H](Cc2ccccc2)NC(=O)[C@H](CCCNC(=N)N)NC(=O)[C@H](CCCNC(=N)N)N(C)C(=O)[C@H]([C@@H](C)CC)NC1=O [compound 17]
6,< 1,CC[C@H](C)[C@@H]1NC(=O)[C@H](Cc2ccc(O)cc2)NC(=O)[C@H](Cc2ccc(O)cc2)NC(=O)[C@H](CC(N)=O)NC(=O)[C@H](Cc2c[nH]c3ccc(Cl)cc23)NC(=O)[C@H](C(C)C)NC(=O)[C@H](Cc2ccccc2)N(C)C(=O)[C@H](C(C)C)NC(=O)[C@H](C)NC(=O)CSC[C@@H](C(=O)NCCOCCOCCOCCOCCC(N)=O)NC(=O)[C@H](Cc2ccc(O)cc2)N(C)C(=O)[C@H](Cc2ccccc2)NC(=O)[C@H](CCCNC(=N)N)NC(=O)[C@H](CCCNC(=N)N)NC(=O)[C@H]([C@@H](C)CC)NC1=O [compound 18]
7,< 1,CC[C@H](C)[C@@H]1NC(=O)[C@H](Cc2ccc(OC)cc2)NC(=O)[C@H](Cc2ccc(O)cc2)NC(=O)[C@H](CC(N)=O)NC(=O)[C@H](Cc2c[nH]c3ccc(Cl)cc23)NC(=O)[C@H](C(C)C)NC(=O)[C@H](Cc2ccccc2)N(C)C(=O)[C@H](C(C)C)NC(=O)[C@H](C)NC(=O)CSC[C@@H](C(=O)NCCOCCOCCOCCOCCC(N)=O)NC(=O)[C@H](Cc2ccc(O)cc2)N(C)C(=O)[C@H](Cc2ccccc2)NC(=O)[C@H](CCCNC(=N)N)NC(=O)[C@H](CCCNC(=N)N)NC(=O)[C@H]([C@@H](C)CC)NC1=O [compound 19]
8,1 to 100,CC[C@H](C)[C@@H]1NC(=O)[C@H](Cc2ccc(O)cc2)NC(=O)[C@H](Cc2ccc(O)cc2)NC(=O)[C@H](CC(N)=O)NC(=O)[C@H](Cc2c[nH]c3ccc(Cl)cc23)NC(=O)[C@H](C(C)C)NC(=O)[C@H](Cc2ccccc2)N(C)C(=O)[C@H](C(C)C)NC(=O)[C@H](C)NC(=O)CSC[C@@H](C(=O)NCCOCCOCCOCCOCCC(N)=O)NC(=O)[C@H](Cc2ccc(O)cc2)N(C)C(=O)[C@H](Cc2ccccc2)NC(=O)[C@@H](CCCNC(=N)N)NC(=O)[C@H](CCCNC(=N)N)NC(=O)[C@H]([C@@H](C)CC)NC1=O [compound 20]
9,1 to 100,CC[C@H](C)[C@@H]1NC(=O)[C@H](Cc2ccc(OC)cc2)NC(=O)[C@H](Cc2ccc(O)cc2)NC(=O)[C@H](CC(N)=O)NC(=O)[C@H](Cc2c[nH]c3ccc(Cl)cc23)NC(=O)[C@H](C(C)C)NC(=O)[C@H](Cc2ccccc2)N(C)C(=O)[C@H](C(C)C)NC(=O)[C@H](C)NC(=O)CSC[C@@H](C(=O)NCCOCCOCCOCCOCCC(N)=O)NC(=O)[C@H](Cc2ccc(O)cc2)N(C)C(=O)[C@H](Cc2ccccc2)NC(=O)[C@@H](CCCNC(=N)N)NC(=O)[C@H](CCCNC(=N)N)NC(=O)[C@H]([C@@H](C)CC)NC1=O [compound 21]
10,< 1,CC[C@H](C)[C@@H]1NC(=O)[C@H](Cc2ccc(O)cc2)NC(=O)[C@H](Cc2ccc(O)cc2)NC(=O)[C@H](CC(N)=O)NC(=O)[C@H](Cc2c[nH]c3ccc(Cl)cc23)NC(=O)[C@H](C(C)C)NC(=O)[C@H](Cc2ccc(F)cc2)N(C)C(=O)[C@H](C(C)C)NC(=O)[C@H](C)NC(=O)CSC[C@@H](C(=O)NCCOCCOCCOCCOCCC(N)=O)NC(=O)[C@H](Cc2ccc(O)cc2)N(C)C(=O)[C@H](Cc2ccccc2)NC(=O)[C@H](CCCNC(=N)N)NC(=O)[C@H](CCCNC(=N)N)NC(=O)[C@H]([C@@H](C)CC)NC1=O [compound 22]
11,< 1,CC[C@H](C)[C@@H]1NC(=O)[C@H](Cc2ccc(OC)cc2)NC(=O)[C@H](Cc2ccc(O)cc2)NC(=O)[C@H](CC(N)=O)NC(=O)[C@H](Cc2c[nH]c3ccc(Cl)cc23)NC(=O)[C@H](C(C)C)NC(=O)[C@H](Cc2ccc(F)cc2)N(C)C(=O)[C@H](C(C)C)NC(=O)[C@H](C)NC(=O)CSC[C@@H](C(=O)NCCOCCOCCOCCOCCC(N)=O)NC(=O)[C@H](Cc2ccc(O)cc2)N(C)C(=O)[C@H](Cc2ccccc2)NC(=O)[C@H](CCCNC(=N)N)NC(=O)[C@H](CCCNC(=N)N)NC(=O)[C@H]([C@@H](C)CC)NC1=O [compound 23]
12,1 to 100,CC[C@H](C)[C@@H]1NC(=O)[C@H](Cc2ccc(O)cc2)NC(=O)[C@H](Cc2ccc(O)cc2)NC(=O)[C@H](CC(N)=O)NC(=O)[C@H](Cc2c[nH]c3ccc(Cl)cc23)NC(=O)[C@H](C(C)C)NC(=O)[C@H](Cc2ccc(F)cc2)N(C)C(=O)[C@H](C(C)C)NC(=O)[C@H](C)NC(=O)CSC[C@@H](C(=O)NCCOCCOCCOCCOCCC(N)=O)NC(=O)[C@H](Cc2ccc(O)cc2)N(C)C(=O)[C@H](Cc2ccccc2)NC(=O)[C@@H](CCCNC(=N)N)NC(=O)[C@H](CCCNC(=N)N)NC(=O)[C@H]([C@@H](C)CC)NC1=O [compound 24]
13,100 to 1000,CC[C@H](C)[C@@H]1NC(=O)[C@H](Cc2ccc(O)cc2)NC(=O)[C@H](Cc2ccc(O)cc2)NC(=O)[C@H](CC(N)=O)NC(=O)[C@H](Cc2c[nH]c3ccc(Cl)cc23)NC(=O)[C@H](C(C)C)NC(=O)[C@H](Cc2ccc(F)cc2)N(C)C(=O)[C@H](C(C)C)NC(=O)[C@H](C)NC(=O)CSC[C@@H](C(=O)NCCOCCOCCOCCOCCC(N)=O)NC(=O)[C@H](Cc2ccc(O)cc2)N(C)C(=O)[C@H](Cc2ccccc2)NC(=O)[C@@H](CCCNC(=N)N)NC(=O)[C@H](CCCNC(=N)N)N(C)C(=O)[C@H]([C@@H](C)CC)NC1=O [compound 25]
14,1 to 100,CC[C@H](C)[C@@H]1NC(=O)[C@H](Cc2ccc(OC)cc2)NC(=O)[C@H](Cc2ccc(O)cc2)NC(=O)[C@H](CC(N)=O)NC(=O)[C@H](Cc2c[nH]c3ccc(Cl)cc23)NC(=O)[C@H](C(C)C)NC(=O)[C@H](Cc2ccc(F)cc2)N(C)C(=O)[C@H](C(C)C)NC(=O)[C@H](C)NC(=O)CSC[C@@H](C(=O)NCCOCCOCCOCCOCCC(N)=O)NC(=O)[C@H](Cc2ccc(O)cc2)N(C)C(=O)[C@H](Cc2ccccc2)NC(=O)[C@@H](CCCNC(=N)N)NC(=O)[C@H](CCCNC(=N)N)NC(=O)[C@H]([C@@H](C)CC)NC1=O [compound 26]
15,1 to 100,CC[C@H](C)[C@@H]1NC(=O)[C@H](Cc2ccc(OC)cc2)NC(=O)[C@H](Cc2ccc(O)cc2)NC(=O)[C@H](CC(N)=O)NC(=O)[C@H](Cc2c[nH]c3ccc(Cl)cc23)NC(=O)[C@H](C(C)C)NC(=O)[C@H](Cc2ccc(F)cc2)N(C)C(=O)[C@H](C(C)C)NC(=O)[C@H](C)NC(=O)CSC[C@@H](C(=O)NCCOCCOCCOCCOCCC(N)=O)NC(=O)[C@H](Cc2ccc(O)cc2)N(C)C(=O)[C@H](Cc2ccccc2)NC(=O)[C@@H](CCCNC(=N)N)NC(=O)[C@H](CCCNC(=N)N)N(C)C(=O)[C@H]([C@@H](C)CC)NC1=O [compound 27]
16,1 to 100,CC[C@H](C)[C@@H]1NC(=O)[C@H](Cc2ccc(O)cc2)NC(=O)[C@H](Cc2ccc(O)cc2)NC(=O)[C@H](CC(N)=O)NC(=O)[C@H](Cc2c[nH]c3ccccc23)N(C)C(=O)[C@H](C(C)C)NC(=O)[C@H](Cc2ccc(F)cc2)N(C)C(=O)[C@H](C(C)C)NC(=O)[C@H](C)NC(=O)CSC[C@@H](C(=O)NCCOCCOCCOCCOCCC(N)=O)NC(=O)[C@H](Cc2ccc(O)cc2)N(C)C(=O)[C@H](Cc2ccccc2)NC(=O)[C@@H](CCCNC(=N)N)NC(=O)[C@H](CCCNC(=N)N)NC(=O)[C@H]([C@@H](C)CC)NC1=O [compound 28]
